Patent publication US20230303540A1 (Merck Sharp & Dohme LLC, priority 2020, published 2023)

What follows are compounds tested against GST-tagged truncated human mutant G2019S LRRK2 (Homo sapiens, UniProt Q5S007, G2019S) (assay: LRRK2 G2019S Km ATP LanthaScreen assay). Conditions: 134 μM ATP (Km ATP), LRRKtide substrate, mean IC50 values; read-out: LRRK2 pIC50 (converted).
Type: biochemical
Procedure, shortened: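 Compound preincubated 15 min at room temperature with enzyme in pH 8.5 Tris buffer (10 mM MgCl2). Then a 90 min reaction at ambient temperature with 134 μM (Km) ATP and fluorescein-LRRKtide. EDTA stop, Tb anti-phospho antibody TR-FRET; […]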

In order of rising IC50:
1. CC1(O)CCN(c2cc3nc(Nc4cnn(C5(C)CC5)c4Cl)ncc3cc2Cl)CC1 [Ex-4.34, 1-(6-chloro-2-{[5-chloro-1-(1-methylcyclopropyl)-1H-pyrazol-4-yl]amino}quinazolin-7-yl)-4-methylpiperidin-4-ol]  0.625 nM
2. CC1(n2ncc(Nc3ncc4cc(Cl)c(N5CCC(N6CC(F)C6)CC5)cc4n3)c2Cl)CC1 [Ex-4.39, 6-chloro-N-[5-chloro-1-(1-methylcyclopropyl)-1H-pyrazol-4-yl]-7-[4-(3-fluoroazetidin-1-yl)piperidin-1-yl]quinazolin-2-amine]  0.625 nM
3. CC1(N2CCN(c3cc4nc(Nc5cnn(CC6CC6)c5Cl)ncc4cc3Cl)CC2)COC1 [Ex-4.48, 6-chloro-N-[5-chloro-1-(cyclopropylmethyl)-1H-pyrazol-4-yl]-7-[4-(3-methyloxetan-3-yl)piperazin-1-yl]quinazolin-2-amine]  0.625 nM
4. CC1(N2CCN(c3cc4nc(Nc5cnn(C(C)(C)C)c5)ncc4cc3Cl)CC2)COC1 [Ex-4.46, N-(1-tert-butyl-1H-pyrazol-4-yl)-6-chloro-7-[4-(3-methyloxetan-3-yl)piperazin-1-yl]quinazolin-2-amine]  0.792 nM
5. Cc1cc(Nc2ncc3cc(Cl)c(N4CCN(C5(C)COC5)CC4)cc3n2)sn1 [Ex-4.62, 6-chloro-7-[4-(3-methyloxetan-3-yl)piperazin-1-yl]-N-(3-methyl-1,2-thiazol-5-yl)quinazolin-2-amine]  0.793 nM
6. CC1(N2CCN(c3cc4nc(Nc5cnn(C(C)(C)C)c5Cl)ncc4cc3Cl)CC2)COC1 [Ex-4.31, N-(1-tert-butyl-5-chloro-1H-pyrazol-4-yl)-6-chloro-7-[4-(3-methyloxetan-3-yl)piperazin-1-yl]quinazolin-2-amine]  1.01 nM
7. CN1CC2(C1)CN(c1cc3nc(Nc4cnn(C5(C)CC5)c4Cl)ncc3cc1Cl)C2 [Ex-4.37, 6-chloro-N-[5-chloro-1-(1-methylcyclopropyl)-1H-pyrazol-4-yl]-7-(6-methyl-2,6-diazaspiro[3.3.]heptan-2-yl)quinazolin-2-amine]  1.24 nM
8. CC1(n2ncc(Nc3ncc4cc(Cl)c(N5CCn6cnnc6C5)cc4n3)c2Cl)CC1 [Ex-4.45, 6-chloro-N-[5-chloro-1-(1-methylcyclopropyl)-1H-pyrazol-4-yl]-7-(5,6-dihydro[1,2,4]triazolo[4,3-a]pyrazin-7(8H)-yl)quinazolin-2-amine]  1.27 nM
9. CC1(N2CCN(c3cc4nc(Nc5cnn(CC6(C#N)CC6)c5)ncc4cc3Cl)CC2)COC1 [Ex-4.53, 1-{[4-({6-chloro-7-[4-(3-methyloxetan-3-yl)piperazin-1-yl]quinazolin-2-yl}amino)-1H-pyrazol-1-yl]methyl}cyclopropane-1-carbonitrile]  1.82 nM
10. CC1(N2CCN(c3cc4nc(Nc5cnn(C6COC6)c5Cl)ncc4cc3Cl)CC2)COC1 [Ex-4.49, 6-chloro-N-[5-chloro-1-(oxetan-3-yl)-1H-pyrazol-4-yl]-7-[4-(3-methyloxetan-3-yl)piperazin-1-yl]quinazolin-2-amine]  1.87 nM
11. CC1(Cn2ncc(Nc3ncc4cc(Cl)c(N5CCN(C6(C)COC6)CC5)cc4n3)c2Cl)COC1 [Ex-4.52, 6-chloro-N-{5-chloro-1-[(3-methyloxetan-3-yl)methyl]-1H-pyrazol-4-yl}-7-[4-(3-methyloxetan-3-yl)piperazin-1-yl]quinazolin-2-amine]  1.89 nM
12. C[C@H]1CN(c2cc3nc(Nc4cnn(C5(C)CC5)c4Cl)ncc3cc2Cl)CCN1C1COC1 [Ex-4.41, 6-chloro-N-[5-chloro-1-(1-methylcyclopropyl)-1H-pyrazol-4-yl]-7-[(3S)-3-methyl-4-(oxetan-3-yl)piperazin-1-yl]quinazolin-2-amine]  1.91 nM
13. CC1(n2ncc(Nc3ncc4cc(Cl)c(N5CCC(N6CC(F)(F)C6)CC5)cc4n3)c2Cl)CC1 [Ex-4.32, 6-chloro-N-[5-chloro-1-(1-methylcyclopropyl)-1H-pyrazol-4-yl]-7-[4-(3,3-difluoroazetidin-1-yl)piperidin-1-yl]quinazolin-2-amine]  2.02 nM
14. CC1(N2CCN(c3cc4nc(Nc5cnn(C6CC6)c5Cl)ncc4cc3Cl)CC2)COC1 [Ex-4.58, 6-chloro-N-(5-chloro-1-cyclopropyl-1H-pyrazol-4-yl)-7-[4-(3-methyloxetan-3-yl)piperazin-1-yl]quinazolin-2-amine]  2.32 nM
15. CC(C)(O)Cn1ncc(Nc2ncc3cc(Cl)c(N4CCN(C5(C)COC5)CC4)cc3n2)c1Cl [Ex-4.51, 1-[5-chloro-4-({6-chloro-7-[4-(3-methyloxetan-3-yl)piperazin-1-yl]quinazolin-2-yl}amino)-1H-pyrazol-1-yl]-2-methylpropan-2-ol]  2.76 nM
16. CC1(N2CCN(c3cc4nc(Nc5cnn(CC6CCC6)c5Cl)ncc4cc3Cl)CC2)COC1 [Ex-4.54, 6-chloro-N-[5-chloro-1-(cyclobutylmethyl)-1H-pyrazol-4-yl]-7-[4-(3-methyloxetan-3-yl)piperazin-1-yl]quinazolin-2-amine]  2.87 nM
17. CC1CN(C2CCN(c3cc4nc(Nc5cnn(C6(C)CC6)c5Cl)ncc4cc3Cl)CC2)C1 [Ex-4.43, 6-chloro-N-[5-chloro-1-(1-methylcyclopropyl)-1H-pyrazol-4-yl]-7-[4-(3-methylazetidin-1-yl)piperidin-1-yl]quinazolin-2-amine]  3.52 nM
18. CC1(N2CCN(c3cc4nc(Nc5cnn(C(F)F)c5)ncc4cc3Cl)CC2)COC1 [Ex-4.57, 6-chloro-N-[1-(difluoromethyl)-1H-pyrazol-4-yl]-7-[4-(3-methyloxetan-3-yl)piperazin-1-yl]quinazolin-2-amine]  4.13 nM
19. CC1(N2CCN(c3cc4nc(Nc5cnn(C6CCC6)c5Cl)ncc4cc3Cl)CC2)COC1 [Ex-4.50, 6-chloro-N-(5-chloro-1-cyclobutyl-1H-pyrazol-4-yl)-7-[4-(3-methyloxetan-3-yl)piperazin-1-yl]quinazolin-2-amine]  4.61 nM
20. CC(C)(C)n1ncc(Nc2ncc3cc(Cl)c(N4CCC(N5CC(F)(F)C5)CC4)cc3n2)c1Cl [Ex-4.33, N-(1-tert-butyl-5-chloro-1H-pyrazol-4-yl)-6-chloro-7-[4-(3,3-difluoroazetidin-1-yl)piperidin-1-yl]quinazolin-2-amine]  4.75 nM
21. CN1CC2CC1CN2c1cc2nc(Nc3cnn(C4(C)CC4)c3Cl)ncc2cc1Cl (centres unmarked) [Ex-4.35, 6-chloro-N-[5-chloro-1-(1-methylcyclopropyl)-1H-pyrazol-4-yl]-7-(5-methyl-2,5-diazabicyclo[2.2.1]heptan-2-yl)quinazolin-2-amine]  4.91 nM
22. CC(C)(O)Cn1cc(Nc2ncc3cc(Cl)c(N4CCN(C5(C)COC5)CC4)cc3n2)cn1 [Ex-4.59, 1-[4-({6-chloro-7-[4-(3-methyloxetan-3-yl)piperazin-1-yl]quinazolin-2-yl}amino)-1H-pyrazol-1-yl]-2-methylpropan-2-ol]  5.26 nM
23. C[C@H]1CN(C)CCN1c1cc2nc(Nc3cnn(C4(C)CC4)c3Cl)ncc2cc1Cl [Ex-4.36, 6-chloro-N-[5-chloro-1-(1-methylcyclopropyl)-1H-pyrazol-4-yl]-7-[(2S)-2,4-dimethylpiperazin-1-yl]quinazolin-2-amine]  6.06 nM
24. CN1CCC2(CCN(c3cc4nc(Nc5cnn(C6(C)CC6)c5Cl)ncc4cc3Cl)C2)C1 (centres unmarked) [Ex-4.42, 6-chloro-N-[5-chloro-1-(1-methylcyclopropyl)-1H-pyrazol-4-yl]-7-(7-methyl-2,7-diazaspiro[4.4]nonan-2-yl)quinazolin-2-amine]  6.55 nM
25. Cn1ncc(Nc2ncc3cc(Cl)c(N4CCN(C5(C)COC5)CC4)cc3n2)c1Cl [Ex-4.47, 6-chloro-N-(5-chloro-1-methyl-1H-pyrazol-4-yl)-7-[4-(3-methyloxetan-3-yl)piperazin-1-yl]quinazolin-2-amine]  8.56 nM
26. CC(C)(C)Cn1cc(Nc2ncc3cc(Cl)c(N4CCN(C5(C)COC5)CC4)cc3n2)cn1 [Ex-4.64, 6-chloro-N-[1-(2,2-dimethylpropyl)-1H-pyrazol-4-yl]-7-[4-(3-methyloxetan-3-yl)piperazin-1-yl]quinazolin-2-amine]  9.73 nM
27. Cc1c(Nc2ncc3cc(Cl)c(N4CCN(C5(C)COC5)CC4)cc3n2)cnn1CC(C)(C)O [Ex-4.55, 1-[4-({6-chloro-7-[4-(3-methyloxetan-3-yl)piperazin-1-yl]quinazolin-2-yl}amino)-5-methyl-1H-pyrazol-1-yl]-2-methylpropan-2-ol]  11.1 nM
28. CO[C@H]1CCN(c2cc3nc(Nc4cnn(C5(C)CC5)c4Cl)ncc3cc2Cl)C1 [Ex-4.40, 6-chloro-N-[5-chloro-1-(1-methylcyclopropyl)-1H-pyrazol-4-yl]-7-[(3S)-3-methoxypyrrolidin-1-yl]quinazolin-2-amine]  15.2 nM
29. CCC1(N2CCN(c3cc4nc(Nc5cnn(C6CC6)c5Cl)ncc4cc3Cl)CC2)COC1 [Ex-4.30, 6-chloro-N-(5-chloro-1-cyclopropyl-1H-pyrazol-4-yl)-7-[4-(3-ethyloxetan-3-yl)piperazin-1-yl]quinazolin-2-amine]  15.7 nM
30. CN1CCN(c2cc3nc(Nc4cnn(C5(C)CC5)c4Cl)ncc3cc2Cl)CC1=O [Ex-4.44, 4-(6-chloro-2-{[5-chloro-1-(1-methylcyclopropyl)-1H-pyrazol-4-yl]amino}quinazolin-7-yl)-1-methylpiperazin-2-one]  20 nM
31. CC1(N2CCN(c3cc4nc(Nc5ccn(CC(F)(F)F)n5)ncc4cc3Cl)CC2)COC1 [Ex-4.63, 6-chloro-7-[4-(3-methyloxetan-3-yl)piperazin-1-yl]-N-[1-(2,2,2-trifluoroethyl)-1H-pyrazol-3-yl]quinazolin-2-amine]  28.3 nM
32. CC1(n2ncc(Nc3ncc4cc(Cl)c(N5CC6(CN(CC(F)(F)F)C6)C5)cc4n3)c2Cl)CC1 [Ex-4.38, 6-chloro-N-[5-chloro-1-(1-methylcyclopropyl)-1H-pyrazol-4-yl]-7-[6-(2,2,2-trifluoroethyl)-2,6-diazaspiro[3.3]heptan-2-yl]quinazolin-2-amine]  29.4 nM
